The supplement of paper PMC11061612

How the values were obtained:
Experiment in all cases: combination Emax (second highest fraction inhibited in the dose matrix, 72 h); higher = more inhibition; extreme values may be limits of the assay
[1] = tested on: HeLa (Cervical Carcinoma)
Summary of the method: (§1)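 After 24 hours at 37°C and 5% CO2 in 1536-well plates, cells in DMEM/F12 or RPMI plus 10% FBS received two-drug dose matrices for 72 hours. Viability came from CellTiter-Glo 2.0 luminescence and was scaled as inhibition, anchored at 0 by vehicle wells and at 1 by blank wells. Combination Emax is taken as the second-highest inhibition in the matrix, and Bliss excess as the observed combination effect less EA + EB − EA·EB, with EA and EB the single-agent effects.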

[2] = tested on: LOXIMVI (Melanoma)
Summary of the method: as §1

[3] = tested on: BE2-M17 (Neuroblastoma)
Summary of the method: as §1

[4] = tested on: SNU-449 (Hepatocellular Carcinoma)
Summary of the method: as §1

[5] = tested on: NCI-H1568 (Lung Adenocarcinoma)
Summary of the method: as §1

[6] = tested on: BPH-1 (Non-Cancerous)
Summary of the method: as §1

[7] = tested on: OVCAR-5 (Ovarian Carcinoma)
Summary of the method: as §1

[8] = tested on: Detroit562 (Head and Neck Carcinoma)
Summary of the method: as §1

[9] = tested on: LNZTA3WT4 (Low Grade Glioma)
Summary of the method: as §1

[10] = tested on: NCI-H524 (Small Cell Lung Carcinoma)
Summary of the method: as §1

[11] = tested on: MPP-89 (Mesothelioma)
Summary of the method: as §1

[12] = tested on: OV-56 (Ovarian Carcinoma)
Summary of the method: as §1

[13] = tested on: SNU-16 (Gastric Carcinoma)
Summary of the method: as §1

[14] = tested on: CAL-33 (Oral Cavity Carcinoma)
Summary of the method: as §1

[15] = tested on: HuH-7 (Hepatocellular Carcinoma)
Summary of the method: as §1

[16] = tested on: FTC-133 (Thyroid Gland Carcinoma)
Summary of the method: as §1

[17] = tested on: SW1573 (Lung Adenocarcinoma)
Summary of the method: as §1

[18] = tested on: HH (T-Cell Non-Hodgkin's Lymphoma)
Summary of the method: as §1

[19] = tested on: NCI-H2722 (Mesothelioma)
Summary of the method: as §1

Row | SMILES | combination Emax [1] | combination Emax [2] | combination Emax [3] | combination Emax [4] | combination Emax [5] | combination Emax [6] | combination Emax [7] | combination Emax [8] | combination Emax [9] | combination Emax [10] | combination Emax [11] | combination Emax [12] | combination Emax [13] | combination Emax [14] | combination Emax [15] | combination Emax [16] | combination Emax [17] | combination Emax [18] | combination Emax [19]
1 | CN(C)CCCOc1ccc(-c2ccc3ncc4c(c3c2)n(C2CCOCC2)c(=O)n4C)cn1 [AZD0156] + C=CCn1c(=O)c2cnc(Nc3ccc(N4CCN(C)CC4)cc3)nc2n1-c1cccc(C(C)(C)O)n1 [AZD1775] (first compound max 1 µM, partner max 1 µM) | 0.498 | 0.753 | 0.57 | 0.142 | 0.419 | 0.457 | 0.347 | 0.606 | 0.783 | 0.792 | 0.522 | 0.19 | 0.919 | 0.643 | 0.262 | 0.536 | 0.268 | 0.442 | 0.268
2 | CN(C)CCCOc1ccc(-c2ccc3ncc4c(c3c2)n(C2CCOCC2)c(=O)n4C)cn1 [AZD0156] + CCN(CCO)CCCOc1ccc2c(Nc3cc(CC(=O)Nc4cccc(F)c4)[nH]n3)ncnc2c1 [AZD2811] (first compound max 1 µM, 7x7, partner max 1 µM) | 0.156 | 0.4 | 0.411 | 0.0548 | 0.131 | 0.459 | 0.137 | 0.75 | 0.105 | 0.973 | 0.105 | 0.062 | 0.593 | 0.71 | 0.0893 | 0.284 | 0.168 | 0.151 | 0.146
3 | C=CCn1c(=O)c2cnc(Nc3ccc(N4CCN(C)CC4)cc3)nc2n1-c1cccc(C(C)(C)O)n1 [AZD1775] + CCc1c2c(nc3ccc(O)cc13)-c1cc3c(c(=O)n1C2)COC(=O)[C@]3(O)CC [SN-38] (first compound max 1 µM, partner max 0.3 µM) |  | 0.863 |  | 0.61 |  |  | 0.77 |  | 0.802 | 0.76 | 0.769 |  | 0.989 |  |  |  |  | 0.567 | 
4 | C=CCn1c(=O)c2cnc(Nc3ccc(N4CCN(C)CC4)cc3)nc2n1-c1cccc(C(C)(C)O)n1 [AZD1775] + Nc1ccn([C@@H]2O[C@H](CO)[C@@H](O)C2(F)F)c(=O)n1 [Gemcitabine] (first compound max 1 µM, partner max 0.3 µM) |  | 0.797 |  | 0.426 |  |  | 0.692 |  | 0.886 | 0.951 | 0.599 |  | 0.998 |  |  |  |  | 0.574 | 
5 | CN(CCO)CC[C@H](CSc1ccccc1)Nc1ccc(S(=O)(=O)NC(=O)c2ccc(N3CCC([C@@H](O)c4ccccc4-c4ccc(Cl)cc4)CC3)cc2)cc1S(=O)(=O)C(F)(F)F [AZD4320] + CS(=O)(=O)CCNCc1ccc(-c2ccc3ncnc(Nc4ccc(OCc5cccc(F)c5)c(Cl)c4)c3c2)o1 [Lapatinib] (first compound max 1 µM, 7x7, partner max 10 µM) |  | 0.64 |  | 0.694 |  |  | 0.896 |  | 0.398 | 0.968 | 0.746 |  | 0.941 |  |  |  |  | 0.316 | 
6 | Cc1c2c(nn1C)CSCc1cc(n(C)n1)CSc1cc(c3ccccc3c1)OCCCc1c(C(=O)O)n(C)c3c-2c(Cl)ccc13 [AZD5991] + CC(=O)O[C@H]1C(=O)[C@@]2(C)[C@H]([C@H](OC(=O)c3ccccc3)[C@]3(O)C[C@H](OC(=O)[C@H](O)[C@@H](NC(=O)c4ccccc4)c4ccccc4)C(C)=C1C3(C)C)[C@]1(OC(C)=O)CO[C@@H]1C[C@@H]2O [Paclitaxel] (first compound max 1 µM, 7x7, partner max 3 µM) |  | 0.755 |  | 0.325 |  |  | 0.707 |  | 0.899 | 0.929 | 0.557 |  | 1 |  |  |  |  | 0.87 | 
7 | Cc1c2c(nn1C)CSCc1cc(n(C)n1)CSc1cc(c3ccccc3c1)OCCCc1c(C(=O)O)n(C)c3c-2c(Cl)ccc13 [AZD5991] + CS(=O)(=O)CCNCc1ccc(-c2ccc3ncnc(Nc4ccc(OCc5cccc(F)c5)c(Cl)c4)c3c2)o1 [Lapatinib] (first compound max 1 µM, 7x7, partner max 10 µM) |  | 0.535 |  | 0.547 |  |  | 0.334 |  | 0.447 | 0.502 | 0.312 |  | 0.998 |  |  |  |  | 0.868 | 
8 | C[C@@H](Nc1cc(F)cc(F)c1)c1cc(C(=O)N(C)C)cc2c(=O)cc(N3CCOCC3)oc12 [AZD8186] + C1CN(CCC1(C(=O)N[C@@H](CCO)C2=CC=C(C=C2)Cl)N)C3=NC=NC4=C3C=CN4 [AZD5363] (first compound max 10 µM, 7x7, partner max 10 µM) |  | 0.287 |  | 0.198 |  |  | 0.432 |  | 0.357 | 0.224 | 0.382 |  | 0.22 |  |  |  |  | 0.299 | 
9 | C[C@@H](Nc1cc(F)cc(F)c1)c1cc(C(=O)N(C)C)cc2c(=O)cc(N3CCOCC3)oc12 [AZD8186] + CC(=O)c1c(C)c2cnc(Nc3ccc(N4CCNCC4)cn3)nc2n(C2CCCC2)c1=O [Palbociclib] (first compound max 10 µM, 7x7, partner max 10 µM) |  | 0.623 |  | 0.391 |  |  | 0.55 |  | 0.478 | 0.571 | 0.317 |  | 0.639 |  |  |  |  | 0.413 | 
10 | C[C@@H](Oc1cc(-c2cnn(C3CCNCC3)c2)cnc1N)c1c(Cl)ccc(F)c1Cl [Crizotinib] + CC1=C(C(=CC=C1)Cl)NC(=O)C2=CN=C(S2)NC3=CC(=NC(=N3)C)N4CCN(CC4)CCO [Dasatinib] (first compound max 10 µM, 7x7, partner max 2 µM) |  | 0.972 |  | 0.831 |  |  | 0.826 |  | 0.666 | 0.977 | 0.914 |  | 0.909 |  |  |  |  | 0.203 | 
11 | CS(=O)(=O)CCNCc1ccc(-c2ccc3ncnc(Nc4ccc(OCc5cccc(F)c5)c(Cl)c4)c3c2)o1 [Lapatinib] + Cn1cnc2c(F)c(Nc3ccc(Br)cc3Cl)c(C(=O)NOCCO)cc21 [Selumetinib] (first compound max 10 µM, 7x7, partner max 10 µM) |  | 0.717 |  | 0.514 |  |  | 0.655 |  | 0.369 | 0.305 | 0.42 |  | 0.557 |  |  |  |  | 0.211 | 
12 | CS(=O)(=O)CCNCc1ccc(-c2ccc3ncnc(Nc4ccc(OCc5cccc(F)c5)c(Cl)c4)c3c2)o1 [Lapatinib] + NC1(c2ccc(-c3nc4ccn5c(=O)[nH]nc5c4cc3-c3ccccc3)cc2)CCC1 [MK-2206] (first compound max 10 µM, 7x7, partner max 10 µM) |  | 0.967 |  | 0.82 |  |  | 0.787 |  | 0.911 | 0.941 | 0.152 |  | 0.964 |  |  |  |  | 0.451 | 
13 | O=C(c1cc(Cc2n[nH]c(=O)c3ccccc23)ccc1F)N1CCN(C(=O)C2CC2)CC1 [Olaparib] + CC1(C)CCC(CN2CCN(c3ccc(C(=O)NS(=O)(=O)c4ccc(NCC5CCOCC5)c([N+](=O)[O-])c4)c(Oc4cnc5[nH]ccc5c4)c3)CC2)=C(c2ccc(Cl)cc2)C1 [Venetoclax] (first compound max 10 µM, 7x7, partner max 1 µM) |  | 0.352 |  | 0.0891 |  |  | 0.0569 |  | 0.0965 | 0.206 | 0.0498 |  | 0.607 |  |  |  |  | 0.165 | 
14 | O=C(c1cc(Cc2n[nH]c(=O)c3ccccc23)ccc1F)N1CCN(C(=O)C2CC2)CC1 [Olaparib] + COc1nnc2ccc(N3CCC(c4ccc(OCCN5CCN(C)C(=O)[C@H]5C)cc4)CC3)nn12 [AZD5153] (first compound max 10 µM, 7x7, partner max 1 µM) |  | 0.864 |  | 0.208 |  |  | 0.449 |  | 0.357 | 0.542 | 0.393 |  | 0.769 |  |  |  |  | 0.382 | 
15 | CCc1c2c(nc3ccc(O)cc13)-c1cc3c(c(=O)n1C2)COC(=O)[C@]3(O)CC [SN-38] + O=C(c1cc(Cc2n[nH]c(=O)c3ccccc23)ccc1F)N1CCN(C(=O)C2CC2)CC1 [Olaparib] (first compound max 0.3 µM, 7x7, partner max 10 µM) | 0.397 | 0.784 | 0.89 | 0.175 |  | 0.963 | 0.637 |  | 0.464 | 0.783 | 0.646 |  | 0.848 | 0.962 |  |  |  | 0.103 | 0.38
16 | Cc1nc(-c2cn3c(n2)-c2ccc(-c4cnn(C(C)(C)C(N)=O)c4)cc2OCC3)n(C(C)C)n1 [Taselisib] + O=C(Nc1ccc2[nH]nc(-c3ccncc3)c2c1)[C@@H]1CCN(CC(=O)N2CCN(c3ccc(-c4ncccn4)cc3)CC2)C1 [SCH772984] (first compound max 10 µM, 7x7, partner max 5 µM) |  | 1 |  | 0.445 |  |  | 0.846 |  | 0.66 | 0.411 | 0.688 |  | 0.82 |  |  |  |  | 0.393 | 
17 | CC1(C)CCC(CN2CCN(c3ccc(C(=O)NS(=O)(=O)c4ccc(NCC5CCOCC5)c([N+](=O)[O-])c4)c(Oc4cnc5[nH]ccc5c4)c3)CC2)=C(c2ccc(Cl)cc2)C1 [Venetoclax] + CS(=O)(=O)CCNCc1ccc(-c2ccc3ncnc(Nc4ccc(OCc5cccc(F)c5)c(Cl)c4)c3c2)o1 [Lapatinib] (first compound max 1 µM, 7x7, partner max 10 µM) |  | 0.426 |  | 0.445 |  |  | 0.308 |  | 0.208 | 0.108 | 0.136 |  | 0.399 |  |  |  |  | 0.129 | 
